Columns and labels:
[1] = test system: normal NK cells expanded with K562-aAPC; assay: drug sensitivity score (DSS) (DSS units); higher = more sensitive; extreme values may be limits of the assay; conditions: 72 h; IL-2 2.5 ng/mL
Protocol: (§1)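 Drug sensitivity and resistance testing on K562-aAPC-expanded normal NK cells: 5 concentrations (10-fold steps over a 10,000-fold range), 72 h at 37 °C, viability by CellTiter-Glo normalised to DMSO and benzethonium chloride controls; DSS from the fitted curve.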

[2] = test system: normal NK cells expanded with K562-aAPC; assay: percent inhibition of viability; higher = more inhibition; conditions: 72 h, IL-2 2.5 ng/mL
Protocol: as §1

[3] = test system: NK-YS (IL-2 2.5 ng/mL); assay: as above; conditions: 72 h
[4] = test system: NKL (IL-2 2.5 ng/mL); assay: as above; conditions: 72 h
[5] = test system: KAI3 (IL-2 2.5 ng/mL); assay: as above; conditions: 72 h
[6] = test system: normal primary NK cells, pool 3 (3 donors) (IL-2 2.5 ng/mL); assay: as above; conditions: 72 h
[7] = test system: SNK-6 (IL-2 2.5 ng/mL); assay: as above; conditions: 72 h
[8] = test system: normal primary NK cells, pool 2 (3 donors) (IL-2 2.5 ng/mL); assay: as above; conditions: 72 h
[9] = test system: normal primary NK cells, pool 1 (3 donors), resting (IL-2 0 ng/mL); assay: as above; conditions: 72 h
[10] = test system: YT (IL-2 2.5 ng/mL); assay: as above; conditions: 72 h
[11] = test system: NK-92 (IL-2 2.5 ng/mL); assay: as above; conditions: 72 h
[12] = test system: DERL-7 (IL-2 2.5 ng/mL); assay: as above; conditions: 72 h
[13] = test system: normal primary NK cells, pool 1 (3 donors) (IL-2 2.5 ng/mL); assay: as above; conditions: 72 h
[14] = test system: KHYG-1 (IL-2 2.5 ng/mL); assay: as above; conditions: 72 h
[15] = test system: IMC-1 (IL-2 20 ng/mL); assay: as above; conditions: 72 h
[16] = test system: NK-YS (IL-2 2.5 ng/mL); assay: drug sensitivity score (DSS) (DSS units); higher = more sensitive; extreme values may be limits of the assay; conditions: 72 h
[17] = test system: NKL (IL-2 2.5 ng/mL); assay: as above; conditions: 72 h
[18] = test system: KAI3 (IL-2 2.5 ng/mL); assay: as above; conditions: 72 h
[19] = test system: normal primary NK cells, pool 3 (3 donors) (IL-2 2.5 ng/mL); assay: as above; conditions: 72 h
[20] = test system: SNK-6 (IL-2 2.5 ng/mL); assay: as above; conditions: 72 h
[21] = test system: normal primary NK cells, pool 2 (3 donors) (IL-2 2.5 ng/mL); assay: as above; conditions: 72 h
[22] = test system: normal primary NK cells, pool 1 (3 donors), resting (IL-2 0 ng/mL); assay: as above; conditions: 72 h
[23] = test system: YT (IL-2 2.5 ng/mL); assay: as above; conditions: 72 h
[24] = test system: NK-92 (IL-2 2.5 ng/mL); assay: as above; conditions: 72 h
[25] = test system: DERL-7 (IL-2 2.5 ng/mL); assay: as above; conditions: 72 h
[26] = test system: normal primary NK cells, pool 1 (3 donors) (IL-2 2.5 ng/mL); assay: as above; conditions: 72 h
[27] = test system: KHYG-1 (IL-2 2.5 ng/mL); assay: as above; conditions: 72 h
[28] = test system: IMC-1 (IL-2 20 ng/mL); assay: as above; conditions: 72 h

O=C(O)CC[C@H]1CC[C@@](c2cc(F)ccc2F)(S(=O)(=O)c2ccc(Cl)cc2)CC1 [MK-0752] (max concentration tested 1000 nM)
Conditions | drug sensitivity score
[1] | 1.1
[16] | 0.08
[17] | 0
[18] | 0
[19] | 0
[20] | 1.21
[21] | 0
[22] | 0
[23] | 0
[24] | 0
[25] | 0
[26] | 0
[27] | 0
[28] | 0

percent inhibition of viability [%]
Conditions | 0.1 nM | 1 nM | 10 nM | 100 nM | 1000 nM
[2] | -3.97 | 0.91 | 0.33 | 10.8 | 16.2
[3] | 1.77 | 3.33 | 4.23 | -0.52 | 12.9
[4] | -5.92 | -6.47 | 1.23 | 0.27 | -0.85
[5] | -5.58 | -3.61 | -11.2 | -10.3 | 10.8
[6] | -11.6 | -7.52 | 0.99 | -5.48 | 3.93
[7] | -1.33 | 10 | 0.79 | 21.6 | 11.5
[8] | -9.74 | -4.15 | -0.03 | -3.82 | -3.17
[9] | -1.4 | -17 | -8.36 | -13.1 | -7.22
[10] | -5.65 | -0.71 | -6.38 | -14.1 | 8.32
[11] | -10.8 | -16 | 2.19 | -18.6 | 9.52
[12] | -0.82 | -1.19 | -2.01 | -1.84 | 0.38
[13] | 1.14 | -1.74 | -0.83 | -10.7 | 3.87
[14] | 2.68 | -1.92 | 2.12 | -1.77 | 2.96
[15] | -1.19 | -1.62 | 3.7 | 1.88 | 9.87

CC(C)Oc1cc(Nc2nc(N[C@@H](C)c3ccc(F)cn3)ncc2Cl)n[nH]1 [AZ-23] (max concentration tested 1000 nM)
Conditions | drug sensitivity score
[1] | 2.75
[16] | 0.85
[17] | 4.11
[18] | 2.21
[19] | 0
[20] | 3.55
[21] | 7.86
[22] | 0
[23] | 0.01
[24] | 0
[25] | 0.51
[26] | 0
[27] | 0.25
[28] | 0

percent inhibition of viability [%]
Conditions | 0.1 nM | 1 nM | 10 nM | 100 nM | 1000 nM
[2] | 2.78 | -2.04 | 0.04 | 9.24 | 31.4
[3] | -4.76 | 0.81 | 3.08 | 0.21 | 23.1
[4] | -5.13 | -8.13 | 11.5 | 13 | 49.2
[5] | 0.26 | -1.15 | 7.26 | 4.08 | 33.3
[6] | -9.03 | -10.1 | -13.7 | 0.83 | 6.87
[7] | -7.56 | 5.32 | 3.77 | 17.8 | 36.8
[8] | -2.37 | -3.09 | -7.97 | 98.9 | 20
[9] | -13.2 | -3.44 | -0.59 | -21.9 | -26.6
[10] | -1.34 | 0.79 | 6.32 | -2.16 | 11.8
[11] | -8.37 | -0.57 | 6.98 | -18.1 | -10.1
[12] | -2.19 | -3.08 | 4.42 | 0.42 | 18.3
[13] | -2.92 | -1.19 | -3.79 | -5.46 | 7.88
[14] | -3.32 | 3.62 | 8.53 | 3.55 | 16.2
[15] | 1.36 | 2.7 | 8 | 5.82 | 6.35

Oc1nc(-c2ccc(C(F)(F)F)cc2)nc2c1CSCC2 [XAV-939] (max concentration tested 10000 nM)
Conditions | drug sensitivity score
[1] | 1.76
[16] | 0
[17] | 0.48
[18] | 0
[19] | 0
[20] | 8.49
[21] | 0
[22] | 0
[23] | 0
[24] | 5.52
[25] | 0
[26] | 0
[27] | 0.01
[28] | 3.24

percent inhibition of viability [%]
Conditions | 1 nM | 10 nM | 100 nM | 1000 nM | 10000 nM
[2] | 1.61 | 2.89 | 1.43 | 14.1 | 19.3
[3] | -12.6 | -2.95 | -1.3 | -3.02 | 5.39
[4] | 1.91 | -6.23 | 10.7 | 20.1 | 4.9
[5] | -2.16 | 1.91 | 4.79 | 4.07 | 5.97
[6] | -11 | -5.69 | -2.72 | 0.89 | 10.2
[7] | -1.06 | -8.2 | 12.5 | 35.6 | 76
[8] | -8.38 | -12 | -5.14 | 5.25 | 5.51
[9] | -4.7 | -1.64 | -3.21 | -28.2 | -2.43
[10] | 4.14 | 5.64 | 7.84 | -1.3 | 6.37
[11] | -10.9 | 2.21 | 17.2 | 22 | 31.4
[12] | -0.97 | 2.31 | -5.81 | -0.61 | -5.6
[13] | 7.73 | 0.81 | -0.78 | 0.58 | 4.2
[14] | -8.26 | -1.11 | 3.24 | 1.73 | 10.4
[15] | -0.75 | 0.78 | 6.56 | 9.99 | 39.2

Cn1cc(C2=C(c3cn(C4CCN(Cc5ccccn5)CC4)c4ccccc34)C(=O)NC2=O)c2ccccc21 [Enzastaurin] (max concentration tested 10000 nM)
Conditions | drug sensitivity score
[1] | 0
[16] | 0
[17] | 0
[18] | 0
[19] | 0.87
[20] | 0.12
[21] | 0.55
[22] | 0
[23] | 0.24
[24] | 0.06
[25] | 1.77
[26] | 0
[27] | 2
[28] | 3.17

percent inhibition of viability [%]
Conditions | 1 nM | 10 nM | 100 nM | 1000 nM | 10000 nM
[2] | -2.11 | 0.83 | 0.77 | 6.44 | 4.35
[3] | 0.58 | 2.87 | 5.54 | 3.28 | 8.57
[4] | -10.8 | -1.53 | 6.99 | 9.21 | 4.11
[5] | -2.12 | 1.12 | -3.1 | -5.65 | 1.6
[6] | -14.8 | -5.85 | 0.91 | -0.47 | 24.4
[7] | -2.07 | -1.57 | 11 | -2.69 | 14.5
[8] | -9.8 | 0.84 | 10.8 | -7.31 | 23.3
[9] | 3.14 | -9.37 | -6.91 | -38.3 | -57.7
[10] | 0.21 | 3.25 | 5.09 | 4.05 | 16.4
[11] | 5.42 | 5.65 | -7.08 | -10.9 | 14.2
[12] | 1.51 | -3.14 | -1.37 | -1.66 | 38.9
[13] | 2.52 | -11.7 | -6.73 | -14.6 | -7.58
[14] | 0.22 | 1.8 | 5.25 | 15.6 | 19
[15] | -6.89 | 3.57 | 0.18 | 12 | 33.1

O=C(NC[C@H](O)CO)c1ccncc1Nc1ccc(I)cc1F [Pimasertib] (max concentration tested 10000 nM)
Conditions | drug sensitivity score
[1] | 0.89
[16] | 2.03
[17] | 18.1
[18] | 5.63
[19] | 0
[20] | 0
[21] | 0.17
[22] | 2.06
[23] | 0.17
[24] | 0
[25] | 11.6
[26] | 2.21
[27] | 14.8
[28] | 0

percent inhibition of viability [%]
Conditions | 1 nM | 10 nM | 100 nM | 1000 nM | 10000 nM
[2] | 0.25 | -8.62 | 0.85 | 3.75 | 18
[3] | -5.36 | -3.17 | -0.42 | 15.1 | 19.9
[4] | -5.35 | 10.9 | 45.4 | 63.2 | 66.3
[5] | -9.91 | 7.15 | 14.8 | 26.4 | 27.1
[6] | -8.93 | -10.8 | -10.3 | -6.25 | 5.59
[7] | -12.2 | -4.53 | -21 | -22.5 | -8.46
[8] | -12.9 | 1.34 | 0.74 | 1.01 | 13.2
[9] | 10.1 | -6.83 | -15.1 | 8.84 | 24.8
[10] | 0.32 | 1.92 | -0.1 | 10.8 | 10.6
[11] | 6.11 | -18.6 | -12.1 | -18.6 | -16.4
[12] | 0.5 | 14.9 | 29.4 | 37.8 | 49.7
[13] | -8.76 | 5.99 | 2.83 | 15.8 | 22.1
[14] | -2.11 | 9.27 | 31.9 | 59.1 | 61.3
[15] | -6.58 | -3.26 | -9.96 | -4.58 | 5.6

— the supplement of paper PMC5908809
